Reference: patent publication US7996156B2, “Methods for predicting properties of molecules” (priority 2002, dated 2011)
Where two headings read alike, the source gives them in different places.

Experiments:
[1] = molecular target: T1, aryl hydrocarbon receptor (AhR) (Rattus norvegicus, UniProt P41738); settings: rodent hepatic cytosol, cited from earlier work
T1 construct: rodent hepatic cytosol as a source of the AhR; from tissue; host or cells: rodent hepatic cytosol
T1 sequence (P41738 10-853): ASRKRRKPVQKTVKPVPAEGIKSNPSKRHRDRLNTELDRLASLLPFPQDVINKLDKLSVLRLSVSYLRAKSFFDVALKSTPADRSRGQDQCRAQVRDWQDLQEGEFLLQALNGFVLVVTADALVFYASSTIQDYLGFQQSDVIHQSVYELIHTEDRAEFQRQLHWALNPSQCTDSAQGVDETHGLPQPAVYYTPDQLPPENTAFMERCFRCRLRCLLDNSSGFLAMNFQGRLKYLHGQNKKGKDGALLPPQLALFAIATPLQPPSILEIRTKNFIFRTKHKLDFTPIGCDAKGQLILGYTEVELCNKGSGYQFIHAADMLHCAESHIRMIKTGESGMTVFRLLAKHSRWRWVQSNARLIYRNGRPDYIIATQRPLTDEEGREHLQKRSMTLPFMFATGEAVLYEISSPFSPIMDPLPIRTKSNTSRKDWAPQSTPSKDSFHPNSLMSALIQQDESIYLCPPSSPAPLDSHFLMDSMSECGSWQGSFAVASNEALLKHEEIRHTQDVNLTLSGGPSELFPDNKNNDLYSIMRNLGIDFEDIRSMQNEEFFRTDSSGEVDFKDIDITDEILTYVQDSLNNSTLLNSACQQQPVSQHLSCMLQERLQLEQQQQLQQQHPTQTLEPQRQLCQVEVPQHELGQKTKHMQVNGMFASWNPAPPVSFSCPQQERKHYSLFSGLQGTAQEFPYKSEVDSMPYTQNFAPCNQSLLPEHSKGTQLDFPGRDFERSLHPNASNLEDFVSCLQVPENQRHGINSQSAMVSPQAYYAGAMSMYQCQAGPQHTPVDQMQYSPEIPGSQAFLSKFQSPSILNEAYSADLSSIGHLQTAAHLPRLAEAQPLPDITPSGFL

estrogen receptor = molecular target: T2, estrogen receptor (Rattus norvegicus, UniProt P06211); assay: Competitive ER binding assay with [3H]E2 in rat uterine cytosol (NCTR)
T2 construct: in rat uterine cytosol, which was obtained from ovariectomized uteri of Sprague-Dawley rats; from tissue; host or cells: uterine cytosol of ovariectomized Sprague-Dawley rats
T2 sequence (P06211 1-600): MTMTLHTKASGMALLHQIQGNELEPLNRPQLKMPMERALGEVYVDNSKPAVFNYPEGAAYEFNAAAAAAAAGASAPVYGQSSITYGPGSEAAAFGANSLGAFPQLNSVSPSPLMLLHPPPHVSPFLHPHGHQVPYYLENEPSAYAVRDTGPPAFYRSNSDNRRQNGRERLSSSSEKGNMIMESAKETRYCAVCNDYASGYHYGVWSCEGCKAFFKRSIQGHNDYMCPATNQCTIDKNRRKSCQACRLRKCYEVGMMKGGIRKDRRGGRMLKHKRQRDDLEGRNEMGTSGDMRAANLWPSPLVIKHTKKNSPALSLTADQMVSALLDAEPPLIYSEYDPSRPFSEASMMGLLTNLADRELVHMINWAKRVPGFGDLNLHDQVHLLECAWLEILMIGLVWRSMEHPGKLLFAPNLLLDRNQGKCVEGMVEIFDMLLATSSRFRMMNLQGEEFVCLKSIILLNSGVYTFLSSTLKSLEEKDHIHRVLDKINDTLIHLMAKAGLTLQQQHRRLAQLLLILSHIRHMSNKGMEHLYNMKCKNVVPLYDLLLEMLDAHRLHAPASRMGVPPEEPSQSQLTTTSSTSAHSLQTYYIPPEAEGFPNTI
From the text: The log relative binding activity (RBA) data for these 130 structurally diverse compounds was used to train the CoSCoSA models. The data was produced at NCTR using a competitive ER binding assay with radiolabeled estradiol ([^3H]E2) in rat uterine cytosol, which was obtained from ovariectomized uteri of Sprague-Dawley rats. […] For each of the 130 compounds, the ^13C 2D ^13C—^13C COSY NMR experiment was simulated using the ACD Labs CNMR version 5.0 2D predictor software. The COSY NMR spectra could be saved as two tables per compound.

[2] = log scale, competitive binding, [3H]-2,3,7,8-tetrachlorodioxin, previously reported training data
[3] = previously reported competitive in vitro AhR binding, [3H]-2,3,7,8-tetrachlorodioxin radioligand, values are log EC50
[4] = relative binding affinity vs 17-β-estradiol (RBA 100), rat uterine cytosol, 130 compound training set

Clc1cc2c(cc1Cl)Oc1c(Cl)c(Cl)c(Cl)c(Cl)c1O2 [1,2,3,4,7,8-hexaCl-dibenzodioxin]
Experimental Log EC50 [1, 2]: −7.55 | Experimental Log EC50 [1, 3]: −7.55

Clc1cc2oc3c(Cl)c(Cl)c(Cl)c(Cl)c3c2cc1Cl [1,2,3,4,7,8-hexaCl-dibenzofuran]
Experimental Log EC50 [1, 2]: −7.64 | Experimental Log EC50 [1, 3]: −7.64

Clc1ccc2c(c1)Oc1c(Cl)c(Cl)c(Cl)c(Cl)c1O2 [1,2,3,4,7-pentaCl-dibenzodioxin]
Experimental Log EC50 [1, 2]: −6.19 | Experimental Log EC50 [1, 3]: −6.19

Clc1c(Cl)c(Cl)c2c(c1Cl)Oc1ccccc1O2 [1,2,3,4-tetraCldibenzodioxin]
Experimental Log EC50 [1, 2]: −6.88 | Experimental Log EC50 [1, 3]: −6.88

Clc1cc2c(oc3cc(Cl)c(Cl)c(Cl)c32)c(Cl)c1Cl [1,2,3,6,7,8-hexaCl-dibenzofuran]
Experimental Log EC50 [1, 2]: −7.57 | Experimental Log EC50 [1, 3]: −7.57

Clc1cc2oc3c(Cl)cccc3c2c(Cl)c1Cl [1,2,3,6-tetraCl-dibenzofuran]
Experimental Log EC50 [1, 2]: −7.46 | Experimental Log EC50 [1, 3]: −7.46

Clc1cc2c(cc1Cl)Oc1c(cc(Cl)c(Cl)c1Cl)O2 [1,2,3,7,8-pentaCl-dibenzodioxin]
Experimental Log EC50 [1, 2]: −8.10 | Experimental Log EC50 [1, 3]: −8.10

Clc1cc2oc3cc(Cl)c(Cl)c(Cl)c3c2cc1Cl [1,2,3,7,8-pentaCl-dibenzofuran]
Experimental Log EC50 [1, 2]: −8.12 | Experimental Log EC50 [1, 3]: −8.12

Clc1cc(Cl)c2c(c1)oc1cc(Cl)c(Cl)c(Cl)c12 [1,2,3,7,9-pentaCl-dibenzofuran]
Experimental Log EC50 [1, 2]: −7.40 | Experimental Log EC50 [1, 3]: −7.40

Clc1ccc2c(c1)oc1cc(Cl)c(Cl)c(Cl)c12 [1,2,3,7-tetraCl-dibenzofuran]
Experimental Log EC50 [1, 2]: −7.96 | Experimental Log EC50 [1, 3]: −7.96

Clc1cc2c(oc3c(Cl)cc(Cl)c(Cl)c32)c(Cl)c1Cl [1,2,4,6,7,8-hexaCl-dibenzofuran]
Experimental Log EC50 [1, 2]: −6.08 | Experimental Log EC50 [1, 3]: −6.08

Clc1cc2c(cc1Cl)Oc1c(Cl)c(Cl)cc(Cl)c1O2 [1,2,4,7,8-pentaCl-dibenzodioxin]
Experimental Log EC50 [1, 2]: −6.96 | Experimental Log EC50 [1, 3]: −6.96

Clc1cc(Cl)c2c(c1)oc1c(Cl)cc(Cl)c(Cl)c12 [1,2,4,7,9-pentaCl-dibenzofuran]
Experimental Log EC50 [1, 2]: −5.70 | Experimental Log EC50 [1, 3]: −5.70

Clc1ccc2oc3c(Cl)cc(Cl)c(Cl)c3c2c1 [1,2,4,8-tetraCl-dibenzofuran]
Experimental Log EC50 [1, 2]: −6.00 | Experimental Log EC50 [1, 3]: −6.00

Clc1cc(Cl)c2c(c1Cl)Oc1ccccc1O2 [1,2,4-triCl-dibenzodioxin]
Experimental Log EC50 [1, 2]: −5.88 | Experimental Log EC50 [1, 3]: −5.88

Clc1cc2oc3c(Cl)c(Cl)cc(Cl)c3c2cc1Cl [1,3,4,7,8-pentaCl-dibenzofuran]
Experimental Log EC50 [1, 2]: −7.70 | Experimental Log EC50 [1, 3]: −7.70

Clc1cc(Cl)c2c(c1)Oc1cc(Cl)c(Cl)cc1O2 [1,3,7,8-tetraCl-dibenzodioxin]
Experimental Log EC50 [1, 2]: −7.10 | Experimental Log EC50 [1, 3]: −7.10

Clc1cccc2c1Oc1ccccc1O2 [1-Cl-dibenzodioxin]
Experimental Log EC50 [1, 2]: −5.00 | Experimental Log EC50 [1, 3]: −5.00

Clc1ccc(-c2cc(Cl)c(Cl)c(Cl)c2Cl)cc1Cl [2,3,3′,4,4′,5-hexaCl-biphenyl]
Experimental Log EC50 [1, 2]: −6.30 | Experimental Log EC50 [1, 3]: −6.30

Clc1ccc(-c2ccc(Cl)c(Cl)c2Cl)cc1Cl [2,3,3′,4,4′-pentaCl-biphenyl]
Experimental Log EC50 [1, 2]: −6.15 | Experimental Log EC50 [1, 3]: −6.15

Clc1ccc(-c2cc(Cl)c(Cl)c(Cl)c2Cl)cc1 [2,3,4,4′,5-pentaCl-biphenyl]
Experimental Log EC50 [1, 2]: −6.38 | Experimental Log EC50 [1, 3]: −6.38

Clc1ccc(-c2ccc(Cl)c(Cl)c2Cl)cc1 [2,3,4,4′-tetraCl-biphenyl]
Experimental Log EC50 [1, 2]: −5.55 | Experimental Log EC50 [1, 3]: −5.55

Clc1cc(-c2ccccc2)c(Cl)c(Cl)c1Cl [2,3,4,5-tetraCl-biphenyl]
Experimental Log EC50 [1, 2]: −4.85 | Experimental Log EC50 [1, 3]: −4.85

Clc1cc2c(oc3c(Cl)c(Cl)c(Cl)cc32)c(Cl)c1Cl [2,3,4,6,7,8-hexaCl-dibenzofuran]
Experimental Log EC50 [1, 2]: −8.33 | Experimental Log EC50 [1, 3]: −8.33

Clc1cc2c(oc3c(Cl)cccc32)c(Cl)c1Cl [2,3,4,6-tetraCl-dibenzofuran]
Experimental Log EC50 [1, 2]: −7.46 | Experimental Log EC50 [1, 3]: −7.46

Clc1cc2oc3c(Cl)c(Cl)c(Cl)cc3c2cc1Cl [2,3,4,7,8-pentaCl-dibenzofuran]
Experimental Log EC50 [1, 2]: −8.82 | Experimental Log EC50 [1, 3]: −8.82

Clc1cc(Cl)c2c(c1)oc1c(Cl)c(Cl)c(Cl)cc12 [2,3,4,7,9-pentaCl-dibenzofuran]
Experimental Log EC50 [1, 2]: −7.70 | Experimental Log EC50 [1, 3]: −7.70

Clc1cc2c(cc1Cl)Oc1c(ccc(Cl)c1Cl)O2 [2,3,6,7-tetraCl-dibenzodioxin]
Experimental Log EC50 [1, 2]: −7.79 | Experimental Log EC50 [1, 3]: −7.79

Clc1cc(Cl)c2oc3cc(Cl)c(Cl)cc3c2c1 [2,3,6,8-tetraCldibenzofuran]
Experimental Log EC50 [1, 2]: −7.66 | Experimental Log EC50 [1, 3]: −7.66

Clc1cc2c(cc1Cl)Oc1c(Cl)cccc1O2 [2,3,6-triCl-dibenzodioxin]
Experimental Log EC50 [1, 2]: −7.66 | Experimental Log EC50 [1, 3]: −7.66

O=c1c(O)c(-c2ccc(O)cc2O)oc2cc(O)cc(O)c12 [morin]
Exp. Log(RBA) (estrogen receptor; [4]): −3.35

C#C[C@]1(O)CC[C@H]2[C@@H]3CCc4cc(O)ccc4[C@H]3[C@@H](OC)C[C@@]21C [moxestrol]
Exp. Log(RBA) (estrogen receptor): 1.14

O=c1c(O)c(-c2cc(O)c(O)c(O)c2)oc2cc(O)cc(O)c12 [myricetin]
Exp. Log(RBA) (estrogen receptor): −2.75

O=C1C[C@@H](c2ccc(O)cc2)Oc2cc(O)cc(O)c21 [naringenin]
Exp. Log(RBA) (estrogen receptor): −2.13

CC(Cc1ccc(O)c(O)c1)C(C)Cc1ccc(O)c(O)c1 (stereo not drawn) [nordihydroguariareticacid]
Exp. Log(RBA) (estrogen receptor; [4]): −1.51

Clc1ccc(C(c2ccccc2Cl)C(Cl)(Cl)Cl)cc1 (stereo not drawn) [o,p′,-DDT]
Exp. Log(RBA) (estrogen receptor; [4]): −2.85

Oc1ccc(-c2ccccc2)cc1 [p-phenylphenol]
Exp. Log(RBA) (estrogen receptor): −3.04

O=C(O)c1ccccc1C(c1ccc(O)cc1)c1ccc(O)cc1 [phenolphthalin]
Exp. Log(RBA) (estrogen receptor; [4]): −3.67

O=C(CCc1ccc(O)cc1)c1c(O)cc(O)cc1O [phloretin]
Exp. Log(RBA) (estrogen receptor): −1.16

CCCOC(=O)c1ccc(O)cc1 [propyl-4-hydroxybenzoate]
Exp. Log(RBA) (estrogen receptor): −3.22

COc1cc(O)c2c(=O)c(-c3ccc(O)cc3)coc2c1 [prunetin]
Exp. Log(RBA) (estrogen receptor): −2.74

C(=C(c1ccccc1)c1ccccc1)c1ccccc1 [triphenylethylene]
Exp. Log(RBA) (estrogen receptor; [4]): −2.78

C[C@H]1CCCC(=O)CCCCCc2cc(O)cc(O)c2C(=O)O1 [zearalanone]
Exp. Log(RBA) (estrogen receptor): 0.32

CCC(c1ccc2cc(O)ccc2c1)C(C)(C)C(=O)O (stereo not drawn) [α,α-dimethylbethyl allenolic acid]
Exp. Log(RBA) (estrogen receptor; [4]): −0.02

C[C@H]1CCC[C@H](O)CCCCCc2cc(O)cc(O)c2C(=O)O1 [α-zearalanol]
Exp. Log(RBA) (estrogen receptor; [4]): 1.48

C[C@H]1CCC[C@H](O)CCC/C=C/c2cc(O)cc(O)c2C(=O)O1 [α-zearalenol]
Exp. Log(RBA) (estrogen receptor; [4]): 1.63

C[C@H]1CCC[C@@H](O)CCCCCc2cc(O)cc(O)c2C(=O)O1 [β-zearalanol]
Exp. Log(RBA) (estrogen receptor; [4]): −0.19

C[C@H]1CCC[C@@H](O)CCC/C=C/c2cc(O)cc(O)c2C(=O)O1 [β-zearalenol]
Exp. Log(RBA) (estrogen receptor; [4]): −0.69
